{
  "source": "patent US8790898B2",
  "about": "(priority 2008, dated 2014)",
  "key": {"[1]": {"system": "primary HIV-1 BZ 167 isolate", "format": "cell-based", "details": "rabbit immune serum; dilution resulting 50% inhibition of HIV-1 infection; listed as CBD1"}, "HIV-1 BZ 167 [2]": {"system": "HIV-1 BZ 167", "format": "cell-based", "details": "listed as CBD1"}, "HIV-1 BZ 167 [3]": {"system": "HIV-1 BZ 167", "format": "cell-based"}, "[4]": {"system": "CBD1 peptide and CBD1- and CBM-based peptides", "set-up": "species or system BALB/c mice", "details": "mouse, in vivo"}, "[5]": {"system": "CBD1 (C18K) and the Tet peptide", "set-up": "species or system cynomolgus macaques (Macaca fascicularis)", "details": "cynomolgus monkey, in vivo"}, "[6]": {"system": "IgG antibodies in human HIV-1 positive sera", "format": "binding"}, "[7]": {"system": "CBD1 peptide specific IFN-γ spot forming cells", "set-up": "species or system cynomolgus macaques (Macaca fascicularis)", "details": "cynomolgus monkey, in vivo"}, "CBD1 peptide": {"target": "CBD1 peptide (Human immunodeficiency virus type 1 group M subtype B, UniProt P04578, E630Q/H625N/T626M)", "details": "rabbits, 150 μg/injection, CFA, ten days after 5th immunization; against CBD1; reciprocal dilution giving OD450 = 0.1"}, "[8]": {"target": "CBD1, C13K, CBD1/A and C10M peptides and the CBD1-KLH Construct (Human immunodeficiency virus type 1 group M subtype B, UniProt P04578)", "details": "guinea pig, in vivo"}, "[9]": {"target": "CBD1, C13K, CBD1/A and C10M peptides and the CBD1-KLH Construct (Human immunodeficiency virus type 1 group M subtype B, UniProt P04578, E630Q/H625N/T626M)", "details": "guinea pig, in vivo"}, "[10]": {"system": "CBD1, C13K, CBD1/A and C10M peptides and the CBD1-KLH Construct", "details": "guinea pig, in vivo"}},
  "note": "Where “and” joins values, the source holds several entries; their conditions need not be identical. Equal values may be shown once. Entries after “also recorded” stand apart in the source; their conditions may differ. Read-outs that look alike come from different tables or passages of the source.",
  "data": [
    {"substance": "C-S-L-E-Q-I-W-N-N-M-T-W-M-Q-W-D-K [C17K]", "values": [
      {"measurement": "HIV Inhibition (ID50)", "setting": "[1]", "value": "250 and 200"},
      {"measurement": "Inhibition of HIV-infection", "setting": "HIV-1 BZ 167 [2]; 50-fold dilution of guinea pig immune sera (bleeds S5), HIV-1 BZ 167, p24 at 5 days post infection", "value": "66% and 57%"},
      {"measurement": "Inhibition of HIV infection", "setting": "HIV-1 BZ 167 [2]; 100 fold dilution of guinea pig immune serum (bleeds S5), HIV-1 BZ 162, human CD4+ T lymphocytes", "value": "66% and 57%"},
      {"measurement": "HIV Inhibition (ID50)", "setting": "HIV-1 BZ 167 [2]; guinea pig immune serum, dilution resulting 50% inhibition of HIV-1 infection", "value": "50 and <50"},
      {"measurement": "% Inhibition of HIV-1 infection at 200-fold dilution", "setting": "HIV-1 BZ 167 [3]", "value": 59, "unit": "%"},
      {"measurement": "% inhibition of HIV-1 at 200-fold dilution", "setting": "HIV-1 BZ 167 [3]", "value": 75, "unit": "%"},
      {"measurement": "HIV Inhibition (ID50)", "setting": "HIV-1 BZ 167 [3]", "value": "250 and 300"},
      {"measurement": "Neutralizing activity ID50", "setting": "HIV-1 BZ 167 [3]", "value": "250-fold"},
      {"measurement": "Neutralizing activity ID50 Fold-Dilution", "setting": "HIV-1 BZ 167 [3]", "value": "300-fold"},
      {"measurement": "IgG2/1gG1 ratio", "setting": "[4]", "value": "0.96 and 1.15"},
      {"measurement": "Titer (ELISA)", "setting": "[4]", "value": "256,000 and 384,000"},
      {"measurement": "ELISA C17K", "setting": "[4]; sc", "value": "1.94 ± 0.28"},
      {"measurement": "ELISA K23M", "setting": "[4]; sc", "value": "<0.20"},
      {"measurement": "ELISA K24W", "setting": "[4]; sc", "value": "<0.20"},
      {"measurement": "ELISA K27M", "setting": "[4]; sc", "value": "2.91 ± 0.26"},
      {"measurement": "ELISA K27W", "setting": "[4]; sc", "value": "<0.20"},
      {"measurement": "ELISA K27W(G)", "setting": "[4]; sc", "value": "<0.20"},
      {"measurement": "ELISA K30W(G)", "setting": "[4]; sc", "value": "<0.20"},
      {"measurement": "ELISA against the Immunogen (OD)", "setting": "[4]; sc", "value": 1.22, "unit": "OD"},
      {"measurement": "ELISA p6362", "setting": "[4]; sc", "value": "1.78 ± 0.22"},
      {"measurement": "ELISA titer against C17K", "setting": "[4]; sc", "value": "1.94 ± 0.45"},
      {"measurement": "IgG2/IgG1 ratio", "setting": "[4]; sc", "value": 1.08},
      {"measurement": "macaques that developed high antibody titers", "setting": "[5]", "value": "two out of the three; also recorded: one out of the three"},
      {"measurement": "sera found to be positive in ELISA", "setting": "[6]; another cohort of 75 HIV-1-positive individuals", "value": "two"},
      {"measurement": "titer of anti-CBD1 peptide antibodies", "setting": "[6]; listed as CBD1", "value": "6,400 and 12,800"},
      {"measurement": "immunized animals in each group that developed a significant level of T-cell response against the CBD1 epitope", "setting": "[7]", "value": "one out of the three"},
      {"measurement": "Titer (ELISA)", "setting": "CBD1 peptide", "value": "768,000 and 640,000"},
      {"measurement": "ELISA C10M (titer)", "setting": "[8]", "value": "12,000"},
      {"measurement": "ELISA CBD1 (titer)", "setting": "[9]", "value": "128,000"},
      {"measurement": "Titer (ELISA)", "setting": "[9]", "value": "128,000 and 96,000"},
      {"measurement": "ELISA C13K (titer)", "setting": "[10]", "value": "128,000"},
      {"measurement": "ELISA CBD1/A (titer)", "setting": "[10]", "value": "12,000 and 16,000"},
      {"measurement": "ELISA KLH (titer against the CBD1-KLH construct)", "setting": "[10]", "value": "<200"},
      {"measurement": "IgG2/1gG1 ratio", "setting": "[10]", "value": "4.10 and 3.75"}
    ]}
  ]
}
